{
  "source": "paper PMC4115637",
  "about": "(Pharmacology Research & Perspectives, 2014)",
  "assay_type_in_all_cases": "cell-based",
  "key": {"human TRPV1": {"target": "human TRPV1 (Homo sapiens, UniProt Q8NER1)", "sequence (Q8NER1 whole entry)": "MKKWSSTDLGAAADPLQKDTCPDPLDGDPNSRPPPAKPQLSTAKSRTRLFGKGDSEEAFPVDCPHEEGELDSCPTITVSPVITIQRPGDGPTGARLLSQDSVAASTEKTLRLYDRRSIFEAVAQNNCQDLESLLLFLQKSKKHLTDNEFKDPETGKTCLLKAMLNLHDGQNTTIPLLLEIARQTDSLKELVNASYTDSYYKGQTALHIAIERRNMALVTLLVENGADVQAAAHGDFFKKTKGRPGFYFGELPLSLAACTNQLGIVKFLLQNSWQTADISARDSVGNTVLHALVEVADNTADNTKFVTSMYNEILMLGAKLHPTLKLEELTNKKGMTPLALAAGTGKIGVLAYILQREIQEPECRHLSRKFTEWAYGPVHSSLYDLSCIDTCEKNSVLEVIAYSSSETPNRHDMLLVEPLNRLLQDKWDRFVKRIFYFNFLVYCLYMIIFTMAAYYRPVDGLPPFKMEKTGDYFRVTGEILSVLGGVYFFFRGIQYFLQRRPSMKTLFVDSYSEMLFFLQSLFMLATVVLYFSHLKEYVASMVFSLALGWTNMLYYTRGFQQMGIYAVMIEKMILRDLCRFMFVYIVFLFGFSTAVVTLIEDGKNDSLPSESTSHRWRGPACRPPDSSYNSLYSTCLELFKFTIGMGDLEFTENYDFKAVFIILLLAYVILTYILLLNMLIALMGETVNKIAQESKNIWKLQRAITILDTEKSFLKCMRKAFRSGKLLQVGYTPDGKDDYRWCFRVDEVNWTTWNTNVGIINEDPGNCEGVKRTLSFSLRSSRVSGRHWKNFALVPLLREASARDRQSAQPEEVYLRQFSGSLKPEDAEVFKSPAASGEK", "test": "Calcium flux in HEK-293 cells overexpressing TRPV1", "conditions": "concentrations up to 1 mmol/L"}, "human TRPV2": {"target": "T1, human TRPV2 (Homo sapiens, UniProt Q9Y5S1)", "T1 sequence (Q9Y5S1 1-764)": "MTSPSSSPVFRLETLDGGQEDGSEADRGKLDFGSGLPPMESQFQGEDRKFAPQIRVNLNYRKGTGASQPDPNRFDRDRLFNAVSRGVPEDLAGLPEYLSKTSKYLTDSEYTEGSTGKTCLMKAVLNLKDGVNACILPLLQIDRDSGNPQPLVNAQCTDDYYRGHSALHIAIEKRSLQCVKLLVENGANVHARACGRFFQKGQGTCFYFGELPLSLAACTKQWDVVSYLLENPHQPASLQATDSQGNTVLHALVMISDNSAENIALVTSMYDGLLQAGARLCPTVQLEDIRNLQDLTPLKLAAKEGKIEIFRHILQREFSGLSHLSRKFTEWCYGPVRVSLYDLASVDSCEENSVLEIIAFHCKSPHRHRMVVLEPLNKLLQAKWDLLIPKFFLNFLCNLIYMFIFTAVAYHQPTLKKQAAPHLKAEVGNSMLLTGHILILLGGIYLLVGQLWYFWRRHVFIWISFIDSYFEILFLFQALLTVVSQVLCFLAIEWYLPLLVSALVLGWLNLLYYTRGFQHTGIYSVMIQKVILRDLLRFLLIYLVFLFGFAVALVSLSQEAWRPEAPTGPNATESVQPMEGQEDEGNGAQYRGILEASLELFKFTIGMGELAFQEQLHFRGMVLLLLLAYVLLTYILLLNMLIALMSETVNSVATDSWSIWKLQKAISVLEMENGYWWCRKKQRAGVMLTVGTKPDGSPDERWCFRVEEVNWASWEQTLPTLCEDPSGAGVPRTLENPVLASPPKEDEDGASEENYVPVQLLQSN", "test": "Calcium flux in HEK-293 cells overexpressing TRPV2", "conditions": "concentrations up to 1 mmol/L"}, "human TRPV4": {"target": "human TRPV4 (Homo sapiens, UniProt Q9HBA0)", "sequence (Q9HBA0 whole entry)": "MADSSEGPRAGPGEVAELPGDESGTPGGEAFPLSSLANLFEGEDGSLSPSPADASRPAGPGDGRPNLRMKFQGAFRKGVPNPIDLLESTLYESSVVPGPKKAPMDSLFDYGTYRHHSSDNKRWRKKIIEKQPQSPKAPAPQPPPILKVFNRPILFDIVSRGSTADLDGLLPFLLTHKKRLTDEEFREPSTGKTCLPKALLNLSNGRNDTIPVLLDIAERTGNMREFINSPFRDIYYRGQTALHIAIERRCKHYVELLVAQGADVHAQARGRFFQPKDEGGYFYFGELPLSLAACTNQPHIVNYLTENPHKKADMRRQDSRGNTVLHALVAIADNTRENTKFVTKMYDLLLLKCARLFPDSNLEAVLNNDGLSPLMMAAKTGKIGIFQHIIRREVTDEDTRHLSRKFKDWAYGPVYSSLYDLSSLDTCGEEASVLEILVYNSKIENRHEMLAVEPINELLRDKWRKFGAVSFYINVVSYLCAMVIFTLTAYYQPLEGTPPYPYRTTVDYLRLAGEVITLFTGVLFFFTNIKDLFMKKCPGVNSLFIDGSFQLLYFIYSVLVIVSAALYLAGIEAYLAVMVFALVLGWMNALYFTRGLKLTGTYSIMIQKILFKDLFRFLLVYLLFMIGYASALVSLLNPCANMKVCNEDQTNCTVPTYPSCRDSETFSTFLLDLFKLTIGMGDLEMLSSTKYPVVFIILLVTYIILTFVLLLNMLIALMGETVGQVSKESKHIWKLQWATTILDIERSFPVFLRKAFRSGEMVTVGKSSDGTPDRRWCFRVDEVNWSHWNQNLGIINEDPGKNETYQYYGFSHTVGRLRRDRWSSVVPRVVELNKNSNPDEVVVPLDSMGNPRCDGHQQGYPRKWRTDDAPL", "test": "Calcium flux in HEK-293 cells overexpressing TRPV4", "conditions": "concentrations up to 1 mmol/L"}, "human TRPV3": {"target": "T2, human TRPV3 (Homo sapiens, UniProt Q8NET8)", "T2 sequence (Q8NET8 1-790)": "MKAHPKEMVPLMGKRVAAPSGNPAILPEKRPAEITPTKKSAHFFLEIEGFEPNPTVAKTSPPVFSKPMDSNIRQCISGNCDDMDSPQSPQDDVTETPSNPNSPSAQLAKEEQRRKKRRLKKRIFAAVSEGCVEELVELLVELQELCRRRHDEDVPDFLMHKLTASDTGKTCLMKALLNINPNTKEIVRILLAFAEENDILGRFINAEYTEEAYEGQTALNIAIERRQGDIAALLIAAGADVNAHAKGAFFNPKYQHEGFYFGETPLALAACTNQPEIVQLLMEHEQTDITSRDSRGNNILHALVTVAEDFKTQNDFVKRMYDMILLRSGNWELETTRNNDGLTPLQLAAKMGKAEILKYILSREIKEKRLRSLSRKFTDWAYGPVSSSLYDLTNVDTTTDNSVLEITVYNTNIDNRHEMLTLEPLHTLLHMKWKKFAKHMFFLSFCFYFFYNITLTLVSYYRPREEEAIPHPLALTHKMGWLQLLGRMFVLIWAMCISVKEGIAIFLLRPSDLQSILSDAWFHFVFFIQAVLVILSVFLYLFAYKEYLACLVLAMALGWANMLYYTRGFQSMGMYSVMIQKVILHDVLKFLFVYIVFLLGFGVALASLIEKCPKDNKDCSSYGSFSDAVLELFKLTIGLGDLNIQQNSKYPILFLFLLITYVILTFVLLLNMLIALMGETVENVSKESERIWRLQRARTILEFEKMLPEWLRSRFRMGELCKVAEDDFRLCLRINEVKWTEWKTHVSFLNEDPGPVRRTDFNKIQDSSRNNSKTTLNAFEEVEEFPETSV", "test": "Calcium flux in TRPV3 overexpressing HEK-293 cells", "conditions": "HEK-293 cells overexpressing TRPV3"}},
  "data": [
    {"smiles": "CCN(CC)CCOC(=O)C(c1ccccc1)C1CCCCC1", "note": "(stereo not shown) [drofenine]", "values": [
      {"measurement": "activation of TRPV1", "setting": "human TRPV1", "value": "not observed"},
      {"measurement": "activation of TRPV2", "setting": "human TRPV2", "value": "not observed"},
      {"measurement": "activation of TRPV4", "setting": "human TRPV4", "value": "not observed"},
      {"measurement": "lowest concentration with detectable change in TRPV3 activity", "setting": "human TRPV3", "value": "~30", "unit": "µmol/L"}
    ]}
  ]
}
